Laboratory results taken from US20220193060A1, “Inhibition of IL-1 Induced Inflammation” (THIOLAB, LLC., priority 2019, published 2022).

Test system: wasp sting
Assay: Case: topical CPDS cream for wasp sting
Format: in vivo, human
Conditions: topical cream containing 2% CPDS by weight
Procedure: An individual was stung by a wasp on their hand. […] Application of CPDS cream was repeated after two hours and every 4 hours thereafter. The swelling and redness vanished after 24 hours.

In the case of `O=C(O)c1ccc(SSc2ccc(C(=O)O)cn2)nc1` [CPDS, 6,6′-dithiodinicotinic acid], the burning and itching (person) is reported as “immediate relief” and the “time until swelling and redness vanished” value is reported as 24 h.
